Source: ChEMBL document CHEMBL4402577, “Discovery and Optimization of a Compound Series Active against Trypanosoma cruzi, the Causative Agent of Chagas Disease” (J Med Chem, 2020)
In brackets after ≈: the same amount, converted by molar mass.

Legend:
Trypanosoma cruzi = test: Antitrypanosomal activity against Trypanosoma cruzi Tulahuen strain C2C4 trypomastigotes infected in rat L6 cells incubated for 96 hrs by photometric method based assay; assay type: functional, organism-based; details: Tulahuen strain C2C4, L6, 96 h
L6 = test: Cytotoxicity against rat L6 cells incubated for 70 hrs by resazurin dye based assay; assay type: cell-based; details: L6, 70 h
[1] = Selectivity ratio, EC50 for cytotoxicity against rat L6 cells to EC50 for antitrypanosomal activity against Trypanosoma cruzi Tulahuen strain C2C4 trypomastigotes infected in rat L6 cells; assay type: toxicity, cell-based; details: read-out: Ratio EC50
[2] = Intrinsic clearance in CD1 mouse liver microsomes at 0.5 uM measured up to 30 mins in presence of NADPH by UPLC-MSMS analysis; assay type: ADME, Microsome; details: 0.5 h
[3] = Kinetic aqueous solubility of compound in DMSO by nephelometric analysis; assay type: physicochemical; details: read-out: Kinetic_solubility

CC(C)(C)[C@H]1CC[C@H](n2c(=O)[nH]c3ncc(N)cc3c2=O)CC1
EC50 (Trypanosoma cruzi): 0.66 µM | EC50 (L6): 63 µM | selectivity ratio [1]: 95 | intrinsic clearance [2]: 0.5 mL/min/g

CC(C)[C@H]1CC[C@H](n2c(=O)[nH]c3ccc(N)cc3c2=O)CC1
EC50 (Trypanosoma cruzi): 0.027 µM | EC50 (L6): 22 µM | selectivity ratio [1]: 810

CC(=O)Nc1ccc2[nH]c(=O)n(CCc3ccccc3)c(=O)c2c1
EC50 (Trypanosoma cruzi): 1.1 µM | EC50 (L6): 139 µM | selectivity ratio [1]: 130

CC(=O)Nc1ccc2[nH]c(=O)n([C@H]3CCO[C@@H](C(C)(C)C)C3)c(=O)c2c1 (racemic)
EC50 (Trypanosoma cruzi): 2.1 µM | EC50 (L6): 125 µM | selectivity ratio [1]: 60 | intrinsic clearance [2]: 16 mL/min/g

CC(=O)Nc1ccc2[nH]c(=O)n(C3CCCCCC3)c(=O)c2c1
EC50 (Trypanosoma cruzi): 2.1 µM | EC50 (L6): 112 µM | selectivity ratio [1]: 53

CCC[C@H]1CC[C@H](n2c(=O)[nH]c3ccc(NC(C)=O)cc3c2=O)CC1
EC50 (Trypanosoma cruzi): 0.015 µM | EC50 (L6): 11 µM | selectivity ratio [1]: 730 | solubility kinetic [3]: 47 µM (≈ 16.1 µg/mL) | intrinsic clearance [2]: 1.5 mL/min/g

O=c1[nH]c2ccc(-c3cncnc3)cc2c(=O)n1CCC1CCCCC1
EC50 (Trypanosoma cruzi): 14 µM | EC50 (L6): 126 µM | selectivity ratio [1]: 9

CC(=O)Nc1ccc2[nH]c(=O)n(C3CCCCC3)c(=O)c2c1
EC50 (Trypanosoma cruzi): 4.2 µM | EC50 (L6): 70 µM | selectivity ratio [1]: 17

CC[C@H]1CC[C@H](n2c(=O)[nH]c3ccc(NC(C)=O)cc3c2=O)CC1
EC50 (Trypanosoma cruzi): 0.058 µM | EC50 (L6): 14 µM | selectivity ratio [1]: 240 | solubility kinetic [3]: 115 µM (≈ 37.9 µg/mL) | intrinsic clearance [2]: 2.4 mL/min/g

CC(=O)Nc1ccc2[nH]c(=O)n(C(C)(C)C)c(=O)c2c1
EC50 (Trypanosoma cruzi): 61 µM | EC50 (L6): 37 µM | selectivity ratio [1]: 0.6

CCCCCCn1c(=O)[nH]c2ccc(NC(C)=O)cc2c1=O
EC50 (Trypanosoma cruzi): 2.9 µM | EC50 (L6): 154 µM | selectivity ratio [1]: 53

CC(=O)Nc1ccc2[nH]c(=O)n(C(CC3CCCCC3)C(N)=O)c(=O)c2c1 (centres undefined)
EC50 (Trypanosoma cruzi): 170 µM | EC50 (L6): 222 µM | selectivity ratio [1]: 1.3

CC(=O)Nc1ccc2[nH]c(=O)n([C@H]3CC[C@@H](C(C)(C)C)CC3)c(=O)c2c1
EC50 (Trypanosoma cruzi): 0.017 µM | EC50 (L6): 5 µM | selectivity ratio [1]: 290 | solubility kinetic [3]: 95 µM (≈ 34 µg/mL) | intrinsic clearance [2]: < 0.5 mL/min/g

CC(=O)Nc1ccc2[nH]c(=O)n(CCC3CCCCC3)c(=O)c2c1
EC50 (Trypanosoma cruzi): 0.73 µM | EC50 (L6): 52 µM | selectivity ratio [1]: 110

CC(=O)Nc1cnc2[nH]c(=O)n([C@H]3CC[C@@H](C(C)C)CC3)c(=O)c2c1
EC50 (Trypanosoma cruzi): 0.38 µM | EC50 (L6): 16 µM | selectivity ratio [1]: 42 | solubility kinetic [3]: 15 µM (≈ 5.17 µg/mL) | intrinsic clearance [2]: 10 mL/min/g

CC[C@H]1CC[C@H](n2c(=O)[nH]c3ncc(NC(C)=O)cc3c2=O)CC1
EC50 (Trypanosoma cruzi): 0.3 µM | EC50 (L6): 215 µM | selectivity ratio [1]: 720 | solubility kinetic [3]: 22 µM (≈ 7.27 µg/mL) | intrinsic clearance [2]: 0.5 mL/min/g

CC(=O)Nc1cnc2[nH]c(=O)n(CCC3CCCCC3)c(=O)c2c1
EC50 (Trypanosoma cruzi): 2.3 µM | EC50 (L6): 130 µM | selectivity ratio [1]: 57 | solubility kinetic [3]: 97 µM (≈ 32 µg/mL)

CC(=O)Nc1ccc2[nH]c(=O)n([C@H]3CC[C@@H](C(F)(F)F)CC3)c(=O)c2c1
EC50 (Trypanosoma cruzi): 4.3 µM | EC50 (L6): 18 µM | selectivity ratio [1]: 4.2 | solubility kinetic [3]: 180 µM (≈ 66.5 µg/mL) | intrinsic clearance [2]: 2.7 mL/min/g

COc1cc([C@@H]2c3cc4c(cc3[C@H](O)[C@H]3COC(=O)[C@H]23)OCO4)cc(OC)c1OC [PODOFILOX]
EC50 (L6): 0.014 µM

CC(=O)Nc1ccc2[nH]c(=O)n([C@H]3CC[C@@H](NC(=O)OC(C)(C)C)CC3)c(=O)c2c1
EC50 (Trypanosoma cruzi): 2.6 µM | EC50 (L6): 118 µM | selectivity ratio [1]: 45

CC(=O)Nc1ccc2[nH]c(=O)n([C@H]3CC[C@H](C(C)(C)C)CC3)c(=O)c2c1
EC50 (Trypanosoma cruzi): 0.022 µM | EC50 (L6): 3.9 µM | selectivity ratio [1]: 180 | solubility kinetic [3]: 131 µM (≈ 46.8 µg/mL) | intrinsic clearance [2]: 3.2 mL/min/g

CC(=O)Nc1ccc2[nH]c(=O)n([C@H]3CC[C@H](C(C)(C)O)CC3)c(=O)c2c1
EC50 (Trypanosoma cruzi): 139 µM | EC50 (L6): 136 µM | selectivity ratio [1]: 0.98 | solubility kinetic [3]: 130 µM (≈ 46.7 µg/mL)

CC(=O)Nc1ccc2[nH]c(=O)n(C3CCC(C)CC3)c(=O)c2c1 (mixture of isomers)
EC50 (Trypanosoma cruzi): 1.4 µM | EC50 (L6): 54 µM | selectivity ratio [1]: 39

CC(C)(C)[C@H]1CC[C@@H](n2c(=O)[nH]c3ncc(N)cc3c2=O)CC1
EC50 (Trypanosoma cruzi): 0.24 µM | EC50 (L6): 44 µM | selectivity ratio [1]: 183 | intrinsic clearance [2]: 1.6 mL/min/g

CC(=O)Nc1ccc2[nH]c(=O)n(Cc3ccccc3)c(=O)c2c1
EC50 (Trypanosoma cruzi): 17 µM | EC50 (L6): 148 µM | selectivity ratio [1]: 9

CC(=O)Nc1ccc2[nH]c(=O)n([C@H]3CO[C@@H](C(C)(C)C)OC3)c(=O)c2c1
EC50 (Trypanosoma cruzi): 6.4 µM | EC50 (L6): 183 µM | selectivity ratio [1]: 29 | solubility kinetic [3]: > 270 µM | intrinsic clearance [2]: 7.2 mL/min/g

CC(=O)Nc1ccc2[nH]c(=O)n(C3CCC(C(C)(C)C)C3)c(=O)c2c1 (racemic)
EC50 (Trypanosoma cruzi): 0.02 µM | EC50 (L6): 41 µM | selectivity ratio [1]: 2100 | intrinsic clearance [2]: 31 mL/min/g

CC(=O)Nc1ccc2[nH]c(=O)n(C3CCN(C(C)(C)C)CC3)c(=O)c2c1
EC50 (Trypanosoma cruzi): 220 µM | EC50 (L6): > 280 µM | selectivity ratio [1]: 1

CC(=O)Nc1ccc2[nH]c(=O)n([C@H]3CC[C@H](OC(C)(C)C)CC3)c(=O)c2c1
EC50 (Trypanosoma cruzi): 3.5 µM | EC50 (L6): 123 µM | selectivity ratio [1]: 35 | intrinsic clearance [2]: < 0.5 mL/min/g

CC(=O)Nc1ccc2[nH]c(=O)n(CCCC(C)C)c(=O)c2c1
EC50 (Trypanosoma cruzi): 4 µM | EC50 (L6): 173 µM | selectivity ratio [1]: 43

CC(=O)Nc1ccc2[nH]c(=O)n([C@H]3CC[C@H](OC(C)C)CC3)c(=O)c2c1
EC50 (Trypanosoma cruzi): 3.1 µM | EC50 (L6): 136 µM | selectivity ratio [1]: 44 | intrinsic clearance [2]: < 0.5 mL/min/g

CC[C@H]1CC[C@H](n2c(=O)[nH]c3ccc(N)cc3c2=O)CC1
EC50 (Trypanosoma cruzi): 0.12 µM | EC50 (L6): 32 µM | selectivity ratio [1]: 270 | intrinsic clearance [2]: 4.2 mL/min/g

CC(=O)Nc1ccc2[nH]c(=O)n([C@H](C)C3CCCCC3)c(=O)c2c1
EC50 (Trypanosoma cruzi): 2.2 µM | EC50 (L6): 88 µM | selectivity ratio [1]: 40

Nc1ccc2[nH]c(=O)n(CCC3CCCCC3)c(=O)c2c1
EC50 (Trypanosoma cruzi): 1.9 µM | EC50 (L6): 19 µM | selectivity ratio [1]: 10

CC(=O)Nc1ccc2[nH]c(=O)n(CCCC3CCCCC3)c(=O)c2c1
EC50 (Trypanosoma cruzi): 0.48 µM | EC50 (L6): 87 µM | selectivity ratio [1]: 180

O=c1[nH]c2ccc(-c3cccnc3)cc2c(=O)n1CCC1CCCCC1
EC50 (Trypanosoma cruzi): 1.9 µM | EC50 (L6): 14 µM | selectivity ratio [1]: 7.4

CC(=O)Nc1ccc2[nH]c(=O)n(C3CCN(C(=O)c4ccccc4)CC3)c(=O)c2c1
EC50 (Trypanosoma cruzi): 140 µM | EC50 (L6): 135 µM | selectivity ratio [1]: 1

CC(=O)Nc1ccc2[nH]c(=O)n([C@H]3CO[C@H](C(C)(C)C)OC3)c(=O)c2c1
EC50 (Trypanosoma cruzi): 0.58 µM | EC50 (L6): 27 µM | selectivity ratio [1]: 47 | intrinsic clearance [2]: < 0.5 mL/min/g

N#CCc1ccc2[nH]c(=O)n(CCC3CCCCC3)c(=O)c2c1
EC50 (Trypanosoma cruzi): 2.1 µM | EC50 (L6): 70 µM | selectivity ratio [1]: 33

CC(=O)Nc1ccc2[nH]c(=O)n(C3CCN(C(=O)OC(C)(C)C)CC3)c(=O)c2c1
EC50 (Trypanosoma cruzi): 30 µM | EC50 (L6): 127 µM | selectivity ratio [1]: 4.2

CC(C)(C)C(=O)Nc1ccc2[nH]c(=O)n(CCC3CCCCC3)c(=O)c2c1
EC50 (Trypanosoma cruzi): 7.1 µM | EC50 (L6): 13 µM | selectivity ratio [1]: 1.8

CC(=O)Nc1ccc2[nH]c(=O)n(CCC(C)C)c(=O)c2c1
EC50 (Trypanosoma cruzi): 9.7 µM | EC50 (L6): 163 µM | selectivity ratio [1]: 17

CC(=O)Nc1ccc2[nH]c(=O)n(CCCc3ccccc3)c(=O)c2c1
EC50 (Trypanosoma cruzi): 7.5 µM | EC50 (L6): 134 µM | selectivity ratio [1]: 18

O=C(Cn1ccnc1[N+](=O)[O-])NCc1ccccc1 [BENZNIDAZOLE]
EC50 (Trypanosoma cruzi): 1.94 µM

CC(=O)Nc1ccc2[nH]c(=O)n(CC3CCCCC3)c(=O)c2c1
EC50 (Trypanosoma cruzi): 2.3 µM | EC50 (L6): 54 µM | selectivity ratio [1]: 23

Cc1noc(C)c1-c1ccc2[nH]c(=O)n(CCC3CCCCC3)c(=O)c2c1
EC50 (Trypanosoma cruzi): 120 µM | EC50 (L6): 88 µM

CC(=O)Nc1ccc2[nH]c(=O)n(CCC3=CCCCC3)c(=O)c2c1
EC50 (Trypanosoma cruzi): 2.1 µM | EC50 (L6): 107 µM | selectivity ratio [1]: 51

CC(=O)Nc1ccc2[nH]c(=O)n([C@H]3CC[C@H](C(F)(F)F)CC3)c(=O)c2c1
EC50 (Trypanosoma cruzi): 0.35 µM | EC50 (L6): 9.5 µM | selectivity ratio [1]: 27 | intrinsic clearance [2]: < 0.5 mL/min/g

O=c1[nH]c2ccc(-c3ccncc3)cc2c(=O)n1CCC1CCCCC1
EC50 (Trypanosoma cruzi): 1.7 µM | EC50 (L6): 14 µM | selectivity ratio [1]: 8

CC(=O)Nc1ccc2[nH]c(=O)n(C3CCCC3)c(=O)c2c1
EC50 (Trypanosoma cruzi): 12 µM | EC50 (L6): 184 µM | selectivity ratio [1]: 15

CC(=O)Nc1cnc2[nH]c(=O)n([C@H]3CC[C@H](C(C)C)CC3)c(=O)c2c1
EC50 (Trypanosoma cruzi): 0.061 µM | EC50 (L6): 32 µM | selectivity ratio [1]: 520 | intrinsic clearance [2]: 1.4 mL/min/g

CC(=O)Nc1ccc2[nH]c(=O)n(-c3ccc(C(C)(C)C)cc3)c(=O)c2c1
EC50 (Trypanosoma cruzi): 4.3 µM | EC50 (L6): 17 µM | selectivity ratio [1]: 4

CC(=O)Nc1ccc2[nH]c(=O)n([C@H]3CC[C@H](C(C)(C)F)CC3)c(=O)c2c1
EC50 (Trypanosoma cruzi): 2.6 µM | EC50 (L6): 17 µM | selectivity ratio [1]: 6.5

CC(C)(C)[C@H]1CC[C@@H](n2c(=O)[nH]c3ccc(N)cc3c2=O)CC1
solubility kinetic [3]: 240 µM (≈ 75.7 µg/mL) | intrinsic clearance [2]: 3.9 mL/min/g

COCCn1c(=O)[nH]c2ccc(NC(C)=O)cc2c1=O
EC50 (Trypanosoma cruzi): 35 µM | EC50 (L6): 0.1 µM | selectivity ratio [1]: 0.003

CC(=O)Nc1ccc2[nH]c(=O)n([C@H]3CC[C@@H](C(C)C)CC3)c(=O)c2c1
EC50 (Trypanosoma cruzi): 0.2 µM | EC50 (L6): 41 µM | selectivity ratio [1]: 210 | intrinsic clearance [2]: 26 mL/min/g

CC(=O)Nc1ccc2[nH]c(=O)n(C3CCN(C(=O)OC(C)(C)C)C3)c(=O)c2c1 (racemic)
EC50 (Trypanosoma cruzi): 54 µM | EC50 (L6): 170 µM | selectivity ratio [1]: 3.1
